Results: patent US20120213837A1, “COMPOSITIONS AND METHODS FOR BIOACTIVE COATINGS TO IMPROVE ALLOGRAFT INCORPORATION” (priority 2009, published 2012)
Entries after “also recorded” stand apart in the source; their conditions may differ.

Legend:
arterioles = details: sustained release from 50:50 PLAGA films, 1:200 wt/wt; cited from earlier work
[1] = in vivo; cited from earlier work
[2] = system: allograft-host bone interface; assay: H&E and Masson's trichrome staining of tibial defects; assay type: in vivo, Sprague Dawley rats; details: 6 weeks healing, vs U and C groups
Protocol: (§1) All animal surgeries were performed according to an approved protocol from the UVA Animal Care and Use Committee. Briefly, adult male Sprague Dawley rats (˜400 g) were randomly assigned to three different experimental groups: uncoated allograft (U), coated 1:12 PLAGA (C), and coated 1:12 PLAGA loaded with 1:200 FTY720 (C/L). Animals were anesthetized with isoflurane gas. Following anesthetization, the dorsal skin was sterilized with betadine and 70% ethanol. A small incision was made longitudinally over the midshaft of the tibia. Subperiosteal dissection was performed once the subcutaneous tissue was dissected over the anterior aspect of the tibia. […]
For CD45 staining to visualize leukocyte recruitment, four 7 μm-thick histological sections per sample (cryo-embedded) were blocked 3×10 minutes in PBS/saponin/BSA and immunolabeled with CD45 (BD Pharmingen) diluted 1:50 in PBS/saponin/BSA. […] To quantify changes in vascular remodeling (particularly recruitment of mural cells) in response to FTY720, SMA-positive cells that formed an obvious lumen were quantified in each tissue section. Total tissue area was measured in ImageJ, and the FTY720-mediated response was represented as a fraction of SMA-positive lumens per total tissue area. […]

[3] = system: critical size calvarial bone defects; details: 3D PLAGA scaffolds delivering FTY720; cited from earlier work
[4] = system: SMA-positive lumens (mural cell recruitment); assay: Smooth muscle alpha-actin (SMA) immunostaining of tibial defect sections; assay type: in vivo, Sprague Dawley rats; details: 6 weeks, interface/allograft regions, vs U and C groups
Protocol: as §1
(§2) For CD45 staining to visualize leukocyte recruitment, four 7 μm-thick histological sections per sample (cryo-embedded) were blocked 3×10 minutes in PBS/saponin/BSA and immunolabeled with CD45 (BD Pharmingen) diluted 1:50 in PBS/saponin/BSA. […] To quantify changes in vascular remodeling (particularly recruitment of mural cells) in response to FTY720, SMA-positive cells that formed an obvious lumen were quantified in each tissue section. Total tissue area was measured in ImageJ, and the FTY720-mediated response was represented as a fraction of SMA-positive lumens per total tissue area.

CD45+ leukocytes = assay: CD45 immunostaining of tibial defect sections; assay type: in vivo, Sprague Dawley rats; details: 6 weeks, qualitative images
Protocol: as §1, §2

[5] = system: host-bone-allograft integrated structure (excised tibias); assay: Post-operative mechanical properties, compression in Instron 4511; assay type: in vivo, Sprague Dawley rats; details: 6 weeks post-op, compression 1 mm/min, vs U and C groups
Protocol: All animal surgeries were performed according to an approved protocol from the UVA Animal Care and Use Committee. Briefly, adult male Sprague Dawley rats (˜400 g) were randomly assigned to three different experimental groups: uncoated allograft (U), coated 1:12 PLAGA (C), and coated 1:12 PLAGA loaded with 1:200 FTY720 (C/L). Animals were anesthetized with isoflurane gas. Following anesthetization, the dorsal skin was sterilized with betadine and 70% ethanol. A small incision was made longitudinally over the midshaft of the tibia. Subperiosteal dissection was performed once the subcutaneous tissue was dissected over the anterior aspect of the tibia. A Dremel rotary tool with a Diamond Wheel accessory was used to make an 8 mm defect slightly distal to the tibial tubercle and the 8 mm allograft segment was inserted into the defect. A stab incision was made just medial to the patellar tendon and a 19.5 gauge needle was inserted into the intramedullary canal, through the allograft, into the distal intramedullary canal to resistance, and tamped flush to the bone. […]
A leading cause of allograft failure or post-operative complications includes mechanical instability at the bone-allograft interface. […] To determine the elastic modulus, the slope was calculated between the values of 0.07 to 0.08 strain, since this was the interval in which the elastic region existed in all the graphs.

[6] = system: smooth muscle proliferation and migration; details: daily injections; cited from earlier work
[7] = In vitro release of 33P-labelled S1P from PLAGA-coated allografts; encapsulation efficiency; assay type: physicochemical
Protocol: Allograft samples were coated similarly to the above protocol with radio-labeled sphingosine-1-phosphate (S1P, Cayman Chemical, Ann Arbor Mich.) to measure drug release over a 14-day period. Specifically, 2.92 mg of S1P was resolubilized in MeCl to a final concentration of 2 mg/mL by frequent heating and vortexing. Using a conversion factor of 2.2×10^6 cpm/μCi and 1 μCi/μL, 6.8 μL of Phosphorus-33 (^33P) (Perkin Elmer, Inc., Waltham, Mass.) was added to the S1P solution. Next, 583 mg of 50:50 PLAGA was added to the S1P-^33P solution to achieve a 1:12 (wt./vol.) polymer-solvent ratio. The final solution had 2.92 mg of S1P, 6.8 μL of ^33P, and 583 mg of 50:50 PLAGA mixed in 7 mL of MeCl. The coated allografts were then placed into a glass scintillation vial containing 50 μL of simulated body fluid (SBF) with 4% fatty acid free (FAF) BSA. Following 24 hours incubation, the allografts were removed from the vials and the remaining 4% FAF-BSA SBF was mixed with 5 mL of EcoScintA biodegradable scintillation solution for quantifying drug release using the Beckman Coulter liquid scintillation counter. Allografts were then placed into a new glass vial containing fresh 4% FAF-BSA SBF. This cycle was repeated for a 14-day period to achieve cumulative measurements. Encapsulation efficiency (maximum amount of S1P that can be released) was quantified by placing allografts in MeCl to completely dissolve the drug-containing polymer solution.
To determine total amount of drug loaded into allograft implants and the kinetics of drug release, in vitro experiments were conducted utilizing allografts loaded with S1P-^33P (FIG. 3). Complete degradation of PLAGA occurs between 6-8 weeks. However, substantial S1P release was expected to occur earlier, given the bulk degradation profile of PLAGA. We found approximately 0.64 mg of the original 1 mg of S1P was actually loaded within the polymer-coated allograft (64% loading efficiency). After 14 days incubation, 0.57 mg of S1P was detected in the simulated body fluid (SBF). […]

[8] = in the absence of a carrier protein; cited from earlier work

SMILES: CCCCCCCCc1ccc(CCC(N)(CO)CO)cc1 [FTY720, Fingolimod]
- microvascular remodeling (arterioles) (arterioles): promotes formation of new arterioles and structural enlargement of existing arterioles
- half-life [1]: approximately 7 days
- allograft-host bone integration, histology [2]: superior collagen alignment, osseous tissue generation along the outer edge of the allograft tissue, better preservation of inner cancellous porous regions, and preservation of allograft-tibial alignment
- osseous tissue ingrowth and proportion of mature smooth muscle cell-invested microvessels [3]: significantly increases
- number of blood vessels stained with smooth muscle alpha-actin [4]: significantly increased; also recorded: enhanced the number of smooth-muscle-invested vessels
- number of CD45+ leukocytes within allograft-host bone interface (CD45+ leukocytes): reductions in the number of leukocytes; also recorded: significant reduction
- elastic modulus [5]: statistically significant increases
- ultimate compressive strength [5]: statistically significant increases

SMILES: CCCCCCCCc1cccc(NC(=O)[C@H](N)CCP(=O)(O)O)c1 [VPC44116]
- smooth muscle proliferation and migration [6]: significantly decreased

SMILES: CCCCCCCCCCCCC/C=C/[C@@H](O)[C@@H](N)COP(=O)(O)O [S1P, sphingosine-1-phosphate]
- half-life in blood [1]: less than 1 hour
- loading efficiency ([7]; 50:50 PLAGA 1:12 coated allograft): 64%
- release profile ([7]; 50:50 PLAGA coated allograft, SBF): initial burst release of drug was observed during the first five days
- amount of S1P loaded within the polymer-coated allograft ([7]; of the original 1 mg of S1P, 50:50 PLAGA 1:12 coating): approximately 0.64 mg
- solubility in aqueous solutions [8]: insoluble
